By mortality is commonly meant the share of the test organisms that died. Read a high mortality as a strong lethal effect.

Type in all cases: in vivo
One assay concerns Plutella xylostella. Kind of assay: whole plant or invertebrate. Particulars: in Brassica oleracea, 144 h. How it is done: (§1) A 10% emulsifiable concentrate of the compound of the present invention (depending on the type of the compound, a 10% wettable powder was subjected to the test) was diluted with water containing a spreader to prepare a drug solution in a concentration of 10 ppm. In this drug solution, a leaf of cabbage was immersed for about 10 seconds and was air-dried and then put into a petri dish. In the petri dish, five 2 instar larvae of Plutella xylostella per petri dish were released and the petri dish was capped and stored in a thermostatic room of 25° C. The number of killed larvae after 6 days was measured and the mortality was calculated from the following calculation formula: Mortality (%)=(number of killed insect/number of released insect)×100. Here, the test was carried out on the duplicate samples.

The subject of a further assay is Spodoptera litura. Kind of assay: whole plant or invertebrate. The following applies: in Brassica oleracea, 144 h. How it is done: as §1, with “Spodoptera litura” for “Plutella xylostella”, “same” for “following”, “formula as that in Test Example 1.” for “formula: Mortality (%)=(number of killed insect/number of released insect)×100.”
A further assay deals with Spodoptera exigua. Kind of assay: Mortality Test for Spodoptera exigua. Particulars: in Brassica oleracea, 144 h. As to the method: as §1, with “of 100” for “of 10”, “of Spodoptera exigua” for “of Plutella xylostella”, “the same” for “the following”, “calculation formula as that in Test Example 1.” for “calculation formula: Mortality (%)=(number of killed insect/number of released insect)×100.”

Another assay relates to Homona magnanima. The assay can be described thus: Mortality Test for Homona magnanima. The following applies: in Brassica oleracea, 144 h. As to the method: as §1, with “of 100” for “of 10”, “of Homona magnanima” for “of Plutella xylostella”, “the same” for “the following”, “calculation formula as that in Test Example 1.” for “calculation formula: Mortality (%)=(number of killed insect/number of released insect)×100.”

Assay [1] deals with Frankliniella occidentalis. The assay can be described thus: whole plant or invertebrate. The following applies: in Phaseolus vulgaris, 48 h. As to the method:
(§2) In a styrol cup having an inner diameter of 7 cm, a wet filtration paper was laid and on the paper, a leaf of kidney bean cut out so as to have the same diameter as the inner diameter of the cup was laid, followed by inoculating ten 1 instar larvae of Frankliniella occidentalis per leaf with the leaf. A 10% emulsifiable concentrate of the compound of the present invention (depending on the type of the compound, a 10% wettable powder was subjected to the test) was diluted with water containing a spreader to prepare a drug solution in a concentration of 500 ppm. The drug solution was sprayed using a rotary spray tower in an amount of 2.5 mL per styrol cup, and the cup was capped and stored in a thermostatic room of 25° C. The number of killed larvae after 2 days was measured and the mortality was calculated from the same calculation formula as that in Test Example 1. Here, the test was carried out on the duplicate samples.

The subject of another assay is Nilaparvata lugens. The assay can be described thus: whole plant or invertebrate. The following applies: in Oryza sativa, 144 h. How it is done:
(§3) A 10% emulsifiable concentrate of the compound of the present invention (depending on the type of the compound, a 10% wettable powder was subjected to the test) was diluted with water containing a spreader to prepare a drug solution in a concentration of 500 ppm. In this drug solution, a leaf sheath of rice was immersed for about 10 seconds and was air-dried and then put into a test tube. In the test tube, five 2 instar larvae of Nilaparvata lugens per test tube were released and the test tube was capped with a sponge and stored in a thermostatic room of 25° C. The number of killed larvae after 6 days was measured and the mortality was calculated from the same calculation formula as that in Test Example 1. Here, the test was carried out on the duplicate samples.

In a further assay the test system is Myzus persicae. Kind of assay: whole plant or invertebrate. The following applies: in Brassica oleracea, 144 h. As to the method: In a glass petri dish having an inner diameter of 3 cm, a wet absorbent cotton was laid and on the cotton, a leaf of cabbage cut out so as to have the same diameter as the inner diameter of the petri dish was laid, followed by releasing four apterous imagines of Myzus persicae on the leaf. After one day, a 10% emulsifiable concentrate of the compound of the present invention (depending on the type of the compound, a 10% wettable powder was subjected to the test) was diluted with water containing a spreader to prepare a drug solution in a concentration of 500 ppm. The drug solution was sprayed using a rotary spray tower (2.5 mg/cm^2), and the petri dish was capped and stored in a thermostatic room of 25° C. The number of killed imagines after 6 days was measured and the mortality was calculated from the same calculation formula as that in Test Example 1. Here, the test was carried out on the duplicate samples.

A further assay concerns Tetranychus urticae. Kind of assay: whole plant or invertebrate. Particulars: in Phaseolus vulgaris, 144 h. As to the method:
as §2, with “ten” for “ten 1 instar”, “of Tetranychus urticae” for “of Frankliniella occidentalis”, “after 6” for “after 2”

In a further assay the test system is Liriomyza trifolii. Kind of assay: whole plant or invertebrate. Particulars: in Phaseolus vulgaris, 144 h. How it is done:
as §3, with “leaf” for “leaf sheath”, “kidney bean which was cut out to a diameter of 7 cm, on which Liriomyza trifolii laid eggs (10 eggs/leaf)” for “rice”, “laid on” for “put into”, “wet filtration paper laid in a styrol cup having an inner diameter” for “test tube. In the test tube, five 2 instar larvae”, “7 cm. The styrol cup” for “Nilaparvata lugens per test tube were released and the test tube”, “capped” for “capped with a sponge”

The next assay deals with Helicoverpa armigera. Kind of assay: Mortality Test for Helicoverpa armigera (Comparative Test). Particulars: in Brassica oleracea, 144 h. As to the method: 10% emulsifiable concentrates of the compound of the present invention and a comparative compound were diluted with water containing a spreader to prepare drug solutions in a predetermined concentration. In each of the drug solutions, a leaf of cabbage was immersed for about 10 seconds and was air-dried and put into a petri dish. In the petri dish, seven 3 instar larvae of Helicoverpa armigera per petri dish were released and the petri dish was capped with a lid having a pore and stored in a thermostat room of 25° C. After 2 days of the treatment, an artificial fertilizer (1 cm^3) was added into the petri dish. The number of killed larvae after 6 days was measured and the mortality was calculated from the calculation formula: Mortality (%)=(number of killed insect/number of released insect)×100. Here, the test was carried out on the duplicate samples.

Structures are written as SMILES. Bounds are passed on as bounds.

For the molecule `CSCC(=O)NC(C)c1ccc(C2=NOC(c3cc(C(F)(F)F)cc(C(F)(F)F)c3)(C(F)(F)F)C2)cc1` (stereo not drawn) [1-001, N-[1-[4-[5-[3,5-bis(trifluoromethyl)phenyl]-5-trifluoromethyl-4,5-dihydroisoxazole-3-yl]phenyl]ethyl]-2-(methylthio)acetamide], the mortality at 10 ppm in the assay with Plutella xylostella and in the assay on Spodoptera litura was no less than 80% throughout. The mortality at 100 ppm in the assay with Spodoptera exigua and with Homona magnanima was no less than 80% throughout. For the same molecule, the mortality at 500 ppm (in assay [1]; with Nilaparvata lugens; in the assay on Myzus persicae; in the assay on Tetranychus urticae) was no less than 80% each time.

For `O=C(CSCC(F)(F)F)NCc1ccc(C2=NOC(c3cc(Cl)c(Cl)c(Cl)c3)(C(F)(F)F)C2)cc1Cl` (stereo not drawn) [1-029, N-[2-chloro-4-[5-(3,4,5-trichlorophenyl)-5-trifluoromethyl-4,5-dihydroisoxazole-3-yl]phenyl]methyl-2-(2,2,2-trifluoroethylthio)acetamide], the mortality at 10 ppm in the assay on Plutella xylostella and in the assay with Spodoptera litura was no less than 80% in each case. For the same molecule, the mortality at 100 ppm in the assay with Homona magnanima is no less than 80%. Moreover, the mortality at 500 ppm (in [1]; in the assay on Nilaparvata lugens; in the assay on Myzus persicae; in the assay with Tetranychus urticae) was no less than 80% each time.

With `COCSCC(=O)NCc1ccc(C2=NOC(c3cc(Cl)c(Cl)c(Cl)c3)(C(F)(F)F)C2)cc1Cl` (stereo not drawn) [1-030, N-[2-chloro-4-[5-(3,4,5-trichlorophenyl)-5-trifluoromethyl-4,5-dihydroisoxazole-3-yl]phenyl]methyl-2-(methoxymethylthio)acetamide], the mortality at 100 ppm in the assay with Plutella xylostella and with Spodoptera litura was no less than 80% in each case.

Consider `CS(CC(=O)NCc1ccc(C2=NOC(c3cc(Cl)c(Cl)c(C(F)(F)F)c3)(C(F)(F)F)C2)cc1Br)=NC#N` (stereo not drawn) [1-103, N-[2-bromo-4-[5-[3,4-dichloro-5-(trifluoromethyl)phenyl]-5-trifluoromethyl-4,5-dihydroisoxazole-3-yl]phenyl]methyl-2-[N-(cyano)methylsulfinimidoyl]acetamide], for which the mortality at 100 ppm with Plutella xylostella and in the assay on Spodoptera litura was no less than 80% throughout.

For the molecule `CCS(=N)(=O)CC(=O)NCc1ccc(C2=NOC(c3cc(C(F)(F)F)cc(C(F)(F)F)c3)(C(F)(F)F)C2)cc1Cl` (stereo not drawn) [1-173, N-[2-chloro-4-[5-[3,5-bis(trifluoromethyl)phenyl]-5-trifluoromethyl-4,5-dihydroisoxazole-3-yl]phenyl]methyl-2-(ethylsulfonimidoyl)acetamide], the mortality at 10 ppm in the assay on Plutella xylostella and in the assay with Spodoptera litura was no less than 80% in each case. Further, the mortality at 500 ppm (in assay [1]; in the assay on Liriomyza trifolii; in the assay on Tetranychus urticae) was no less than 80% each time.

For the molecule `C[S+]([O-])C(C(=O)NCc1ccc(C2=NOC(c3cc(C(F)(F)F)cc(C(F)(F)F)c3)(C(F)(F)F)C2)cc1Cl)[S+](C)[O-]` (stereo not drawn) [1-211, N-[4-[5-[3,5-bis(trifluoromethyl)phenyl]-5-trifluoromethyl-4,5-dihydroisoxazole-3-yl]-2-chlorophenyl]methyl-2,2-bis(methylsulfinyl)acetamide], the mortality at 100 ppm in the assay on Plutella xylostella, with Spodoptera litura and in the assay on Tetranychus urticae was no less than 80% each time. For the same molecule, in the assay on Liriomyza trifolii, the mortality at 500 ppm was no less than 80%.

For `CCSC(C(=O)NCc1ccc(C2=NOC(c3cc(C(F)(F)F)cc(C(F)(F)F)c3)(C(F)(F)F)C2)cc1Cl)[S+]([O-])CC` (stereo not drawn) [1-220, N-[4-[5-[3,5-bis(trifluoromethyl)phenyl]-5-trifluoromethyl-4,5-dihydroisoxazole-3-yl]-2-chlorophenyl]methyl-2-ethylsulfinyl-2-(ethylthio)acetamide], the mortality at 100 ppm with Plutella xylostella, with Spodoptera litura, in the assay with Homona magnanima, with Myzus persicae and in the assay on Tetranychus urticae was no less than 80% throughout. In addition, the mortality at 500 ppm with Liriomyza trifolii was no less than 80%.

In the case of `CCSC(C(=O)NCc1ccc(C2=NOC(c3cc(C(F)(F)F)cc(C(F)(F)F)c3)(C(F)(F)F)C2)cc1Cl)S(=O)(=O)CC` (stereo not drawn) [1-225, N-[4-[5-[3,5-bis(trifluoromethyl)phenyl]-5-trifluoromethyl-4,5-dihydroisoxazole-3-yl]-2-chlorophenyl]methyl-2-ethylsulfonyl-2-(ethylthio)acetamide], the mortality at 100 ppm with Plutella xylostella and in the assay on Spodoptera litura was no less than 80% throughout. Further, the mortality at 500 ppm in the assay with Myzus persicae and in the assay with Tetranychus urticae was no less than 80% throughout.

On to `CSCC(=O)NCc1ccc(C2=NOC(c3cc(Cl)cc(Cl)c3)(C(F)(F)F)C2)cc1Cl` (stereo not drawn) [Comparative compound A], for which, in the assay on Helicoverpa armigera, the mortality at 1 ppm worked out at 0%, the mortality at 3 ppm was 57.1%, the mortality at 10 ppm was found to be 92.9% and the mortality at 33 ppm turned out to be 100%.

The record behind these values is US8318757B2, “Substituted isoxazoline compound and pest control agent” (Nissan Chemical Industries, Ltd., priority 2007, dated 2012).
